Reference: ChEMBL document CHEMBL3639022, “Azolopyridin-3-one derivatives as inhibitors of lipases and phospholipases” (2015)

Target: T1, Endothelial lipase (Homo sapiens, UniProt Q9Y5X9)
T1 sequence (Q9Y5X9 whole entry): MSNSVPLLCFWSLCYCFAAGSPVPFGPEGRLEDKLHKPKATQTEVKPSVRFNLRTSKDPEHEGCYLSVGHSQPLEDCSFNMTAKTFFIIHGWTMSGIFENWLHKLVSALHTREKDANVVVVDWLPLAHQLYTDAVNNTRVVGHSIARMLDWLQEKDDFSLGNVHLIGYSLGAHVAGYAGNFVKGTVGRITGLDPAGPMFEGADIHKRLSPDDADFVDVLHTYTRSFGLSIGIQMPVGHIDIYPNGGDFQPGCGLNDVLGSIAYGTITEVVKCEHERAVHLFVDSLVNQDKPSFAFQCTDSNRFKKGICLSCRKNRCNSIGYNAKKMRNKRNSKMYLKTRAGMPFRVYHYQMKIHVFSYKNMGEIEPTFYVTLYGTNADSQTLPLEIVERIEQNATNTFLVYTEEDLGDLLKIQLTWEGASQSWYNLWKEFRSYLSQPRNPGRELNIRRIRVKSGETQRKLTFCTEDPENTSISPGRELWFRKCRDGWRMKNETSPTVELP
Experiment: Enzyme Assay: For characterization of the enzymatic activity of endothelial lipase and the effect of inhibitors, the phospholipase-specific substrate 1,2-bis(4,4-difluoro-5,7-dimethyl-4-bora-3a,4a-diaza-s-indacene-3-undecanoyl)-sn-glycero-3-phosphocholine (manufacturer: Molecular Probes) was used. Hydrolysis of the A1 ester bond of this phospholipid by the enzyme releases the fluorescent dye Bodipy, which can be detected by measuring the fluorescence after separation by thin-layer chromatography on an HPTLC plate (silica gel 60, Merck) or directly in the reaction vessel. To prepare the substrate solution, 100 ug of 1,2-bis(4,4-difluoro-5,7-dimethyl-4-bora-3a,4a-diaza-s-indacene-3-undecanoyl)-sn-glycero-3-phosphocholine (manufacturer: Molecular Probes) were dissolved in 100 ul of DMSO and taken up in 2.4 mg of tripalmitin (Sigma) in 393 ul of chloroform which contained 20 mg/ml DOPcholine (1,2-dioleoyl-sn-glycero-3-phosphocholine).

- IC50: 138 nM
SMILES: O=C(NCc1ccccc1OC(F)F)n1sc2ncccc2c1=O
